In brackets after ≈: the same amount, converted by molar mass. Where two headings read alike, the source gives them in different places. Where a SMILES comes first, the peptide text is derived from it. Where no end group is shown, it is not given here. [ ]: non-standard residue; d: D form.
Experiments:
[1] = tested on: E. coli; assay: MIC, broth dilution; format: cell-based, Escherichia coli KCTC 1682; details: E. coli; 16 h, MH media; read-out: Minimal Inhibitory Concentration (MIC)
Excerpt: (§1) Escherichia coli KCTC 1682 was obtained from the Korean Collection for Type Cultures (KCTC) (Jeongeup-si, Korea), Acinetobacter baumannii KCCM 40203, Pseudomonas aeruginosa KCCM 11328 from the Korea Culture Center of Microorganisms (KCCM) (Seoul, Korea). Klebsiella pneumoniae NCCP 16054 were obtained from the National Culture Collection for Pathogens (NCCP) (Osong, Korea). Additionally, two carbapenem-resistant E. coli (CREC E1 and E2), 11 carbapenem-resistant A. baumannii (CRAB C0–C10) and two carbapenem-resistant K. pneumoniae (CRKP K1 and K2) were isolated from the patients, who presented symptoms and signs of infection at Korea University Anam Hospital (Seoul, Korea) (IRB registration no. 2020AN0157, 4 March 2021). CRAB C0–C10 have the OXA-23 gene with carbapenem-resistance.
(§2) The minimum inhibitory concentrations (MIC) were determined using broth dilution method. Briefly, all the mentioned bacterial strains were grown overnight at 37 °C by Muller–Hinton (MH) media. […] After 16 h incubation, the bacterial growth was read at 600 nm using a SpectraMAX microplate reader (Molecular Devices, San Jose, CA, USA).

[2] = tested on: A. baumannii; assay: MIC, broth dilution; format: cell-based, Acinetobacter baumannii KCCM 40203; details: 16 h, MH media, read-out: Minimal Inhibitory Concentration (MIC)
Excerpt: as §1, §2

[3] = tested on: P. aeruginosa; assay: MIC, broth dilution; format: cell-based, Pseudomonas aeruginosa KCCM 11328; details: 16 h, MH media, read-out: Minimal Inhibitory Concentration (MIC)
Excerpt: as §1, §2

[4] = tested on: CREC E1; assay: MIC, broth dilution; format: cell-based, carbapenem-resistant E. coli; details: read-out: Minimal Inhibitory Concentration (MIC)
Excerpt: as §1, §2

[5] = tested on: CREC E2; assay: MIC, broth dilution; format: cell-based, carbapenem-resistant E. coli; details: read-out: Minimal Inhibitory Concentration (MIC)
Excerpt: as §1, §2

[6] = tested on: CRAB C0; assay: MIC, broth dilution; format: cell-based, carbapenem-resistant A. baumannii; details: read-out: Minimal Inhibitory Concentration (MIC)
Excerpt: as §1, §2

[7] = tested on: CRAB C10; assay: MIC, broth dilution; format: cell-based, carbapenem-resistant A. baumannii; details: read-out: Minimal Inhibitory Concentration (MIC)
Excerpt: as §1, §2

[8] = tested on: CRAB C2; assay: MIC, broth dilution; format: cell-based, carbapenem-resistant A. baumannii; details: read-out: Minimal Inhibitory Concentration (MIC)
Excerpt: as §1, §2

[9] = tested on: CRAB C3; assay: MIC, broth dilution; format: cell-based, carbapenem-resistant A. baumannii; details: read-out: Minimal Inhibitory Concentration (MIC)
Excerpt: as §1, §2

[10] = tested on: CRAB C4; assay: MIC, broth dilution; format: cell-based, carbapenem-resistant A. baumannii; details: read-out: Minimal Inhibitory Concentration (MIC)
Excerpt: as §1, §2

[11] = tested on: CRAB C5; assay: MIC, broth dilution; format: cell-based, carbapenem-resistant A. baumannii; details: read-out: Minimal Inhibitory Concentration (MIC)
Excerpt: as §1, §2

[12] = tested on: CRAB C6; assay: MIC, broth dilution; format: cell-based, carbapenem-resistant A. baumannii; details: read-out: Minimal Inhibitory Concentration (MIC)
Excerpt: as §1, §2

[13] = tested on: CRAB C7; assay: MIC, broth dilution; format: cell-based, carbapenem-resistant A. baumannii; details: read-out: Minimal Inhibitory Concentration (MIC)
Excerpt: as §1, §2

[14] = tested on: CRAB C9; assay: MIC, broth dilution; format: cell-based, carbapenem-resistant A. baumannii; details: read-out: Minimal Inhibitory Concentration (MIC)
Excerpt: as §1, §2

[15] = tested on: CRAB C1; assay: microbe, parasite or virus in culture; details: CRAB C1
Excerpt: as §1, §2

[16] = tested on: CRAB C8; assay: microbe, parasite or virus in culture; details: CRAB C8
Excerpt: as §1, §2

[17] = tested on: K. pneumoniae; assay: microbe, parasite or virus in culture; details: 16 h
Excerpt: as §1, §2

[18] = tested on: CRKP K1; assay: MIC, broth dilution; format: cell-based, carbapenem-resistant K. pneumoniae; details: read-out: Minimal Inhibitory Concentration (MIC)
Excerpt: as §1, §2

[19] = tested on: CRKP K2; assay: MIC, broth dilution; format: cell-based, carbapenem-resistant K. pneumoniae; details: read-out: Minimal Inhibitory Concentration (MIC)
Excerpt: as §1, §2

[20] = tested on: sheep red blood cells (sRBC); assay: Hemolytic assay; format: cell-based; details: 100 μM
Experimental: The peptide-induced toxicity was determined by hemolytic against Sheep red blood cells (sRBC). Briefly, Fresh sRBC were washed at least three times with phosphate-buffered saline (PBS) and the debris were removed by centrifugation (1000× g for 5 min, 4 °C). All the peptides including melittin control (0.2–100 μM) and positive control (1% (v/v) triton X-100) were incubated with 4% (v/v) sRBC for 1 h at 37 °C followed by centrifugation at 1000× g for 5 min. The supernatant was measured at 405 nm using a microplate reader.

[21] = tested on: CRAB C0; format: cell-based, carbapenem-resistant A. baumannii; details: peptide pre-incubated 6 h at 37 °C
Experimental: (§3) All the peptides at their MICs were pre-incubated with proteolytic enzymes such as trypsin and α-chymotrypsin (10,000:1; peptide: enzyme ratio) for 6 h at 37 °C. Then, 100 μL of peptide-protease cocktail was added to the 100 µL bacterial suspension (E. coli, A. baumannii and CRAB C0, 2 × 10^5 CFU/mL) and further incubated for 16 h at 37 °C. Bacterial suspension without peptide and protease served as negative control. The analysis was repeated at three times using independent experiments, and the degree of bacterial growth was measured at 600 nm using a microplate reader.

[22] = tested on: RAW 264.7 murine macrophage cells; assay: Cytotoxicity, WST-8 assay; format: cell-based, mouse; details: 24 h
Experimental: (§4) Figure 6 In vitro cytotoxicity of Pro9-3 and their analogues. (A) Dose-response curve represent the hemolytic activity of peptides against sheep red blood cell (sRBC). Concentration-dependent (0–100 μM) toxic effects induced by peptides on (B) RAW 264.7 murine macrophage cells and (C) human kidney (HK)-2 cells for 24 h. Melittin was used as a control. Statistical analysis was performed using two-way analysis of variance (ANOVA) with Dunnett’s comparison test. Values are expressed as mean ± SEM of three independent experiments. * p < 0.05, ** p < 0.01, *** p < 0.001, and ns, non-significant compared with the control.
(§5) RAW 264.7 mouse macrophage cells and Human kidney (HK)-2 cells were obtained from Korean cell line bank (Seoul, Korea) and the cells were maintained in DMEM culture media (Thermo Fischer Scientific Inc., Waltham, MA, USA) supplemented with 10% fetal bovine serum, 1% penicillin/streptomycin at 37 °C in a humidified 5% CO2 incubator. The cytotoxicity of the peptides was analyzed using WST-8 cell proliferation assay (Biomax Co, Ltd., Seoul, Korea), and the experiment was performed according to the kit protocol. Briefly, cells (1 × 10^4) were seeded in 96-well plate and the peptides treatment (0–100 μM) were initiated at 80% confluency and then for 24 h. After incubation, WST-8 reagent was added and the change in absorbance was read at 450 nm against reagent blank, and values are expressed as percent cell survival.

[23] = tested on: human kidney (HK)-2 cells; assay: Cytotoxicity, WST-8 assay; format: cell-based; details: 24 h; for Toxicity in HK-2 cells: up to 100 μM
Experimental: as §4, §5

[24] = tested on: CRAB C0 outer membrane; assay: Outer membrane permeability, NPN uptake; format: cell-based, carbapenem-resistant A. baumannii
Experimental: The effect of peptides on the disturbance of CRAB C0 outer membrane was analyzed using 1-N-phenylnaphthylamine (NPN, Sigma-Aldrich, St. Louis, MO, USA) uptake assay, as previously described. Briefly, CRAB C0 cell suspensions were mixed with NPN (1 mM) and the background fluorescence was recorded for subtraction (excitation λ = 350 nm, emission λ = 420 nm) using RF-6000PC fluorescent spectrophotometer (Shimadzu Scientific Instruments, Kyoto, Japan). Changes in the NPN fluorescence were recorded after addition of different concentrations of peptides and values are expressed as—fluorescence intensity (A.U.).

[25] = tested on: E. coli; format: cell-based, Escherichia coli; details: peptide pre-incubated 6 h at 37 °C
Experimental: as §3

[26] = tested on: A. baumannii; format: cell-based, Acinetobacter baumannii; details: peptide pre-incubated 6 h at 37 °C
Experimental: as §3

Compound	MIC [1] [µM]	MIC [2] [µM]	MIC [3] [µM]	MIC [4] [µM]	MIC [5] [µM]	MIC [6] [µM]	MIC [7] [µM]	MIC [8] [µM]	MIC [9] [µM]	MIC [10] [µM]	MIC [11] [µM]	MIC [12] [µM]	MIC [13] [µM]	MIC [14] [µM]	Minimal Inhibitory Concentration (MIC) [15] [µM]	Minimal Inhibitory Concentration (MIC) [16] [µM]	MIC [18] [µM]	MIC [19] [µM]	Hemolytic activity [20] [%]	Minimal Inhibitory Concentration (MIC) ([21]; CRAB C0 + Trypsin) [µM]	also measured
RLWLAIWRR-NH2 [Pro9-3]	16	16	64	16	16	8	16	16	16	16	16	16	16	16	16	16	64	64	2.5	>64	Minimal Inhibitory Concentration (MIC) [17]: 64 µM; Minimal Inhibitory Concentration (MIC) ([21]; CRAB C0 + α-Chymotrypsin): >64 µM; Toxicity in RAW 264.7 cells ([22]; up to 100 μM): neither R-Pro9-3 nor Pro9-3 (parent) showed toxicity; Toxicity in HK-2 cells [23]: neither R-Pro9-3 nor Pro9-3 (parent) showed toxicity
CC[C@@H](C)[C@@H](NC(=O)[C@@H](C)NC(=O)[C@@H](CC(C)C)NC(=O)[C@@H](Cc1c[nH]c2ccccc12)NC(=O)[C@@H](CC(C)C)NC(=O)[C@H](N)CCCNC(=N)N)C(=O)N[C@H](Cc1c[nH]c2ccccc12)C(=O)N[C@H](CCCNC(=N)N)C(=O)N[C@H](CCCNC(=N)N)C(N)=O [Pro9-3D, rlwlaiwrr-NH2] (H-[dR][dL][dW][dL][dA][dI][dW][dR][dR]-NH2)	8 (≈ 10.1 µg/mL)	4 (≈ 5.07 µg/mL)	8 (≈ 10.1 µg/mL)	8 (≈ 10.1 µg/mL)	8 (≈ 10.1 µg/mL)	4 (≈ 5.07 µg/mL)	8 (≈ 10.1 µg/mL)	8 (≈ 10.1 µg/mL)	8 (≈ 10.1 µg/mL)	8 (≈ 10.1 µg/mL)	8 (≈ 10.1 µg/mL)	8 (≈ 10.1 µg/mL)	8 (≈ 10.1 µg/mL)	8 (≈ 10.1 µg/mL)	8	8	16 (≈ 20.3 µg/mL)	8 (≈ 10.1 µg/mL)	1.9	4	Minimal Inhibitory Concentration (MIC) [17]: 8 µM; NPN uptake (outer membrane permeabilization) [24]: greater NPN uptake than their L-form peptides; Minimal Inhibitory Concentration (MIC) ([21]; CRAB C0 + α-Chymotrypsin): 4 µM; Toxicity in RAW 264.7 cells ([22]; 100 μM): 44.5%; Toxicity in human kidney (HK)-2 cells ([23]; 100 μM): 22.9%
RRWIALWLR-NH2 [R-Pro9-3]	16	16	64	16	16	8	16	32	32	32	32	32	32	16	32	32	32	32	3.4	64	Minimal Inhibitory Concentration (MIC) ([17]; K. pneumoniae, MH media): 32 µM; Minimal Inhibitory Concentration (MIC) ([25]; E. coli + Trypsin): >64 µM; Minimal Inhibitory Concentration (MIC) ([25]; E. coli + α-Chymotrypsin): 64 µM; Minimal Inhibitory Concentration (MIC) ([26]; A. baumannii + Trypsin): >64 µM; Minimal Inhibitory Concentration (MIC) ([26]; A. baumannii + α-Chymotrypsin): >64 µM; Minimal Inhibitory Concentration (MIC) ([21]; CRAB C0 + α-Chymotrypsin): 64 µM; Toxicity in RAW 264.7 cells ([22]; up to 100 μM): neither R-Pro9-3 nor Pro9-3 (parent) showed toxicity; Toxicity in HK-2 cells [23]: neither R-Pro9-3 nor Pro9-3 (parent) showed toxicity
